Assay results: patent publication US10017712B2, “Method for producing vitamin E-enriched, especially tocotrienol-enriched, compositions from natural oils” (Evonik Degussa GmbH, priority 2014, dated 2018)

Legend:
[1] = Partition coefficients of individual tocopherols and tocotrienols, palm oil with ethanol or methanol; type: physicochemical
Method: Table 3 provides values of the individual partition coefficient values of tocopherol and tocotrienol compounds found in palm oil. The values were measured by contacting palm oil and ethanol (denoted PC Eth in Table 3) and palm oil and methanol (denoted PC Meth in Table 3) at the oil to solvent ratios noted in the table—e.g. PC Eth 1:5 means that one volume of palm oil was contacted with 5 volumes of ethanol.

[2] = Single stage methanol extraction of vegetable oils, partition coefficient; type: physicochemical
Method: First methanol was tested for its efficiency in extracting of α-tocopherol and FFA from three vegetable oils. 200-300 ml of oil was mixed with the solvent using a magnetic stirrer at 35° C. The mixture is gravity separated and the oil stayed at the bottom. Partition coefficients of α-tocopherol and FFA were obtained by measuring the concentration of both compounds in the extract and the bottom fraction without evaporation of the solvent. The partition coefficient is calculated as follows: PC=(concentration in the extract)/(concentration in the bottom fraction).

[3] = PC Meth 1:1 (palm oil:methanol)
[4] = PC Meth 1:2 (palm oil:methanol)
[5] = PC Meth 1:5 (palm oil:methanol)
[6] = PC Meth 1:7 (palm oil:methanol)
[7] = PC Meth 1:3 (palm oil:methanol)

Partition coefficient ([1]; PC Eth 1:1 (palm oil:ethanol))	Partition coefficient ([1]; PC Eth 1:2 (palm oil:ethanol))	Partition coefficient ([1]; PC Eth 1:5 (palm oil:ethanol))	Partition coefficient ([1]; PC Eth 1:7 (palm oil:ethanol))	Partition coefficient [1, 3]	Partition coefficient [1, 4]	Partition coefficient [1, 5]	Partition coefficient [1, 6]	Partition coefficient ([2]; Palm Oil, Solvent:Oil Ratio 2:1, 35° C.)	Partition coefficient ([2]; Rapeseed Oil, Solvent:Oil Ratio 3:1, 35° C.)	Partition coefficient ([2]; Rice Bran Oil, Solvent:Oil Ratio 2:1, 35° C.)	Structure (SMILES)	Partition coefficient ([1]; PC Eth 1:3 (palm oil:ethanol))	Partition coefficient [1, 7]
0.50	0.47	0.53	0.29	0.25	0.07	0.09	0.01	–	–	–	Cc1cc(O)cc2c1O[C@](C)(CCC[C@H](C)CCC[C@H](C)CCCC(C)C)CC2 [Delta-tocopherol]	–	–
0.30	0.31	0.42	0.22	0.21	0.15	0.11	0.09	0.15	0.39	0.20	Cc1c(C)c2c(c(C)c1O)CC[C@@](C)(CCC[C@H](C)CCC[C@H](C)CCCC(C)C)O2 [α-tocopherol]	0.25	0.21

Structure (SMILES)	Partition coefficient ([1]; PC Eth 1:1 (palm oil:ethanol))	Partition coefficient ([1]; PC Eth 1:2 (palm oil:ethanol))	Partition coefficient ([1]; PC Eth 1:5 (palm oil:ethanol))	Partition coefficient ([1]; PC Eth 1:7 (palm oil:ethanol))	Partition coefficient [1, 3]	Partition coefficient [1, 4]	Partition coefficient [1, 5]	Partition coefficient [1, 6]	Partition coefficient ([2]; Palm Oil, Solvent:Oil Ratio 2:1, 35° C.)	Partition coefficient ([2]; Rapeseed Oil, Solvent:Oil Ratio 3:1, 35° C.)	Partition coefficient ([2]; Rice Bran Oil, Solvent:Oil Ratio 2:1, 35° C.)	Partition coefficient ([1]; PC Eth 1:3 (palm oil:ethanol))	Partition coefficient [1, 7]
CC(C)=CCC/C(C)=C/CC/C(C)=C/CC[C@]1(C)CCc2cc(O)c(C)c(C)c2O1 [Gamma-tocotrienol]	0.72	0.81	0.79	0.53	1.17	0.64	0.46	0.36	–	–	–	0.85	0.76
